The values that follow come from patent publication US7579356B2, “Thia-tetraazaacenaphthylene kinase inhibitors” (Janssen Pharmaceutica NV, priority 2005, dated 2009).

One test deals with T1, EGFR (Homo sapiens, UniProt P00533).
T1 construct: The intracellular portion of EGFR started at nucleotide 2189 (corresponding to amino acid 667) and ended at the termination codon; made in house; host or cells: Sf9 insect cells (baculovirus)
In words: EGFR Kinase Assay. Format: biochemical. The note with it: for inhibition at 2 µM: test concentration of 2 μM, compounds without an IC50, read-out: EGFR inhibition in percent; for IC50: GST-EGFR, ATP 5 μM. The source says: The EGFR kinase used was a fusion of Glutathione-S-Transferase (GST) and a PCR amplified intracellular portion of EGFR (Accession Number NM_005228). The intracellular portion of EGFR started at nucleotide 2189 (corresponding to amino acid 667) and ended at the termination codon. The portion was PCR amplified with primers that added the lambda attB sequences to each end, recombined into an entry vector, then into a GST destination vector (as described in Gateway Technologies Manual by Invitrogen Corporation, Carlsbad, Calif.).
The destination vector was recombined in the DH10BAC strain of bacteria to produce a bacmid. The bacmid was transfected into Sf 9 cells and the supernatant containing the baculovirus was collected. The GSTEGFR protein was purified using large cultures of Sf 9 cells infected with stock virus. After an appropriate period of time, the cells were collected and lysed. The GSTEGFR was then purified from the lysate on Glutathione-Sepharose columns (as described by Amersham Biosciences, Buckinghamshire, United Kingdom).
The EGFR substrate was prepared by biotinylating polyGluTyr (128 mg) (Sigma, St. Louis, Mo.) in a 1×PBS buffer incubated together with a 12-fold molar excess of Sulfo-NHS-LC-Biotin on ice for at least 2 hrs. The free biotin was separated from the biotinylated polyGluTyr on a gel filtration column.
A mixture of a 10× kinase buffer (500 mM Tris at pH 8.0, 100 mM Magnesium Chloride and 1 mM Sodium Vanadate), DTT (1 mM final from 500 mM stock), ATP (5 μM final from 10 mM stock), biotinylated polyGluTyr (10 μg/μL stock), γ-^33P ATP (10 μCl/μL stock) and water was added to each well (for a total of 90 μL/well) of a Streptavidin Flashplate (Perkin Elmer, Wellesley, Mass.).
Test compound in 100% DMSO (2 μL) was added to the appropriate wells. Diluted GSTEGFR (1:300 dilution in 50 mM Tris at pH 8.0 and 0.1% bovine serum albumin) (10 μL) was added to the wells to initiate the reactions.
The plates were incubated at 30° C. for 1 hr with shaking. The reacted contents were removed and the plates were sequentially washed three times with a 1×PBS stop buffer (300 μL without Magnesium and Calcium) and 100 mM EDTA. After the final wash, the same stop buffer (200 μL) was added to the wells. The plates were then sealed and read on the TopCount scintillation counter.
Test compounds were assayed in triplicate at 16 concentrations at half-log dilutions starting at 200 uM. A maximum and minimum signal for the assay was determined on each plate. The percent inhibition of a test compound was calculated according to the formula: […]
For a series of test concentrations, the IC50 was derived by graphing percent inhibition against the log of the concentrations tested for a given compound. For those compounds without an IC50, the inhibition values in percent are shown at a test concentration of 2 μM. For compounds with multiple values, each value represents a separate assay result.

A further test has as its target T2, HER-2 (Homo sapiens, UniProt P04626).
T2 construct: His6 with thrombin site (N); purchased Proqinase (Freiburg, Germany)
The experiment in a line: HER-2 Kinase Assay. Format: biochemical. The note with it: for IC50: value in parentheses; for inhibition at 1 µM: test concentration of 1 μM. The method, then: The HER-2 kinase used was purified at Proqinase (Freiburg, Germany) from a construct that consisted of a fusion of GST (Glutathione-S-Transferase), HIS6-Thrombin and the nucleotides encoding amino acids 679 to 1255 of HER-2 (Accession Number M11730).
A mixture of a 10× kinase reaction buffer (600 mM Hepes at pH 7.5, 30 mM Magnesium Chloride, 0.03 mM Sodium Vanadate and 500 μg/mL PEG 20,000), DTT (1.2 mM final from a 10 mM stock), APT (1 μM from a 10 mM stock), biotinylated polyGluTyr (1.5 ng/μL final from stock of 1 μg/μL) prepared by Upstate Biotechnologies, Lake Placid, N.Y.), Manganese Chloride (3 mM final from a 1 M stock), γ-^33P-ATP (10 μCl/μL stock) and water (70 μL/well) was added to each well of a Streptavidin Flashplate (Cat. # SMP103, NEN, Boston, Mass.).
Test compound stock (1 μL) was added to the appropriate wells. Diluted GSTHER2 kinase (6.7 ng/μL diluted into 50 mM Tris-HCl at pH 8.0 and 0.1% bovine serum albumin) (30 μL) was added (total volume of 200 ng/well) to initiate the reactions.
The reaction plates were incubated at 30° C. for 1 hr. The reaction was terminated by aspirating the reaction mixture from the plate wells and washing the wells three times with a 1×PBS stop buffer (300 μL) and 100 mM EDTA. After the final wash, the same stop buffer (200 μL) was again added to the wells. The plates were then sealed and read on the TopCount scintillation counter.
The Her-2 inhibition values were derived according to the procedure described in Example 164 and are shown as percent in Table 4 at a test concentration of 1 μM. For those compounds with an IC50, the IC50 value in μM is shown in parentheses. For compounds with multiple test values, each value represents a separate assay result.

T1 sequence (P00533 669-1210 limits assumed): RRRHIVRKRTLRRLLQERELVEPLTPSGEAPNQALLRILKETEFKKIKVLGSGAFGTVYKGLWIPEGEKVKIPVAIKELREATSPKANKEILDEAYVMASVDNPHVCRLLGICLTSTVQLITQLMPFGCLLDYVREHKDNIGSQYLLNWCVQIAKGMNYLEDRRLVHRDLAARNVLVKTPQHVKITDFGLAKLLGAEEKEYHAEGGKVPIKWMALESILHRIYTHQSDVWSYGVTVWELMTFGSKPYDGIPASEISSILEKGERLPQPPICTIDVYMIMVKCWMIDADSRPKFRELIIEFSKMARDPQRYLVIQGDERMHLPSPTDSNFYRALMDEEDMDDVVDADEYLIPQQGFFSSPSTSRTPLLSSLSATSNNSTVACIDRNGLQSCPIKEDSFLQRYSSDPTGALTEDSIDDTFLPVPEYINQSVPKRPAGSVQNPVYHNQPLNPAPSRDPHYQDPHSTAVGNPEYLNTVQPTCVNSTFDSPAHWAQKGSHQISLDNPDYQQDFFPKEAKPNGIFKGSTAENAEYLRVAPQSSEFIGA
T2 sequence (P04626 679-1255): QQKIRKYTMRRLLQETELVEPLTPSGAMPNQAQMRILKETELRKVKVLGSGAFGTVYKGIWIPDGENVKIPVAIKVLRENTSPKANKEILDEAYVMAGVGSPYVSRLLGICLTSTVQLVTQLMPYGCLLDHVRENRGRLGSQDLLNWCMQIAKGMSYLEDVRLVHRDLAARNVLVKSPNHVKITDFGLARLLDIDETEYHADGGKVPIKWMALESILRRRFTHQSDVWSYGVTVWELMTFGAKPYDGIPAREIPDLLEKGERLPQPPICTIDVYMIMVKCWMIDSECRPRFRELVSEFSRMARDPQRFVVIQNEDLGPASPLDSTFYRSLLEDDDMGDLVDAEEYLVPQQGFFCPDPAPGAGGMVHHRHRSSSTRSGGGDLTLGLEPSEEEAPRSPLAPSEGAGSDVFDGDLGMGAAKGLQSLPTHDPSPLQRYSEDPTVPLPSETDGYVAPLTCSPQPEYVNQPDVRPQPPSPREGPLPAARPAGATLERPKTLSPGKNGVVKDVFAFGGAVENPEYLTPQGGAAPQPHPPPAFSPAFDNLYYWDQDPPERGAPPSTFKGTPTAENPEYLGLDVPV

In the case of `O=C(Nc1ccc(N2C(=O)Nc3c(C(=O)Nc4ccc(CN5CCOCC5)cc4)sc4ncnc2c34)cc1)c1ccccc1` [Cpd 248, 5-(4-benzoylamino-phenyl)-4-oxo-4,5-dihydro-3H-1-thia-3,5,6,8-tetraaza-acenaphthylene-2-carboxylic acid (4-morpholin-4-ylmethyl-phenyl)-amide], on EGFR, the inhibition at 2 µM came to 8%. For the same compound, at HER-2, the IC50 was > 100000 nM.
With `CN1CCC(NC(=O)c2sc3ncnc4c3c2NC(=O)N4c2ccc(OCc3ccco3)c(Cl)c2)CC1` [Cpd 247, 5-[3-chloro-4-(furan-2-ylmethoxy)-phenyl]-4-oxo-4,5-dihydro-3H-1-thia-3,5,6,8-tetraaza-acenaphthylene-2-carboxylic acid (1-methyl-piperidin-4-yl)-amide], the values for the IC50 against EGFR and at HER-2 were 249 nM and 1190 nM, respectively.
On EGFR, `O=C(Nc1ccc(CN2CCCC2)cc1)c1sc2ncnc3c2c1NC(=O)N3c1ccc(F)c(Cl)c1` [Cpd 7, 5-(3-chloro-4-fluoro-phenyl)-4-oxo-4,5-dihydro-3H-1-thia-3,5,6,8-tetraaza-acenaphthylene-2-carboxylic acid (4-pyrrolidin-1-ylmethyl-phenyl)-amide] showed an IC50 of 7 nM. In addition, testing at 1 µM against HER-2 gave an inhibition of 69%.
In the case of `CC1CCN(Cc2ccc(NC(=O)c3sc4ncnc5c4c3NC(=O)N5c3ccc(Oc4ccccc4)cc3)cc2)CC1` [Cpd 255, 4-oxo-5-(4-phenoxy-phenyl)-4,5-dihydro-3H-1-thia-3,5,6,8-tetraaza-acenaphthylene-2-carboxylic acid [4-(4-methyl-piperidin-1-ylmethyl)-phenyl]-amide], the half-inhibitory concentration (IC50) at EGFR worked out at 41 nM; at HER-2, 24 nM.
As for `COc1ccc(N2C(=O)Nc3c(C(=O)Nc4ccc(CN5CCCCC5)cc4)sc4ncnc2c34)c(F)c1` [Cpd 66, 5-(2-fluoro-4-methoxy-phenyl)-4-oxo-4,5-dihydro-3H-1-thia-3,5,6,8-tetraaza-acenaphthylene-2-carboxylic acid (4-piperidin-1-ylmethyl-phenyl)-amide], the IC50 on EGFR stood at 524 nM. Further, the inhibition at 1 µM against HER-2 worked out at 11%.
Consider `O=C(Nc1ccc(CN2CCOCC2)cc1)c1sc2ncnc3c2c1NC(=O)N3c1ccc(Oc2cccnc2)c(Cl)c1` [Cpd 208, 5-[3-chloro-4-(pyridin-3-yloxy)-phenyl]-4-oxo-4,5-dihydro-3H-1-thia-3,5,6,8-tetraaza-acenaphthylene-2-carboxylic acid (4-morpholin-4-ylmethyl-phenyl)-amide], for which the concentration for half-maximal inhibition (IC50) against EGFR was 133 nM; at HER-2, 57 nM.
`O=C(Nc1ccc(CN2CCCCC2)cc1)c1sc2ncnc3c2c1NC(=O)N3c1ccc(Oc2cccnc2)cc1` [Cpd 238, 4-oxo-5-[4-(pyridin-3-yloxy)-phenyl]-4,5-dihydro-3H-1-thia-3,5,6,8-tetraaza-acenaphthylene-2-carboxylic acid (4-piperidin-1-ylmethyl-phenyl)-amide]: the concentration for half-maximal inhibition (IC50) is 132 nM on EGFR and 1050 nM on HER-2.
With `COc1cc(NC(=O)c2sc3ncnc4c3c2NC(=O)N4c2ccc(Oc3ccccc3)c(Br)c2)ccc1CN1CCOCC1` [Cpd 189, 5-(3-bromo-4-phenoxy-phenyl)-4-oxo-4,5-dihydro-3H-1-thia-3,5,6,8-tetraaza-acenaphthylene-2-carboxylic acid (3-methoxy-4-morpholin-4-ylmethyl-phenyl)-amide], the IC50 was 83 nM against EGFR and 72 nM at HER-2.
On to `O=C(Nc1ccc(CN2CCCC(CO)C2)cc1)c1sc2ncnc3c2c1NC(=O)N3c1ccc(Oc2ccccc2)cc1` (centres unmarked) [Cpd 256, 4-oxo-5-(4-phenoxy-phenyl)-4,5-dihydro-3H-1-thia-3,5,6,8-tetraaza-acenaphthylene-2-carboxylic acid [4-(3-hydroxymethyl-piperidin-1-ylmethyl)-phenyl]-amide], for which the results for the concentration for half-maximal inhibition (IC50) at EGFR and on HER-2 were 321 nM and 450 nM, respectively.
`CN1CCN(Cc2ccc(NC(=O)c3sc4ncnc5c4c3NC(=O)N5c3ccc(Sc4ccccc4)cc3)cc2)CC1` [Cpd 218, 4-oxo-5-(4-phenylsulfanyl-phenyl)-4,5-dihydro-3H-1-thia-3,5,6,8-tetraaza-acenaphthylene-2-carboxylic acid [4-(4-methyl-piperazin-1-ylmethyl)-phenyl]-amide]: the results for the 50% inhibitory concentration (IC50) against EGFR and on HER-2 were 14 nM and 73 nM, respectively.
Take `CN1CCN(Cc2ccc(NC(=O)c3sc4ncnc5c4c3NC(=O)N5c3ccc(OCc4cccc(F)c4)c(Cl)c3)cc2)CC1` [Cpd 252, 5-[3-chloro-4-(3-fluoro-benzyloxy)-phenyl]-4-oxo-4,5-dihydro-3H-1-thia-3,5,6,8-tetraaza-acenaphthylene-2-carboxylic acid [4-(4-methyl-piperazin-1-ylmethyl)-phenyl]-amide]: the IC50 is 161 nM at EGFR and 610 nM on HER-2.
As for `O=C(Nc1ccc(CN2CCOCC2)cc1)c1sc2ncnc3c2c1NC(=O)N3c1ccc(Oc2ccccc2)c(Br)c1` [Cpd 187, 5-(3-bromo-4-phenoxy-phenyl)-4-oxo-4,5-dihydro-3H-1-thia-3,5,6,8-tetraaza-acenaphthylene-2-carboxylic acid (4-morpholin-4-ylmethyl-phenyl)-amide], the 50% inhibitory concentration (IC50) on EGFR amounted to 121 nM; at HER-2 it was 248 nM.
Take `CCOc1cc(NC(=O)c2sc3ncnc4c3c2NC(=O)N4c2ccc(Oc3ccccc3)cc2)ccc1CN1CCOCC1` [Cpd 207, 4-oxo-5-(4-phenoxy-phenyl)-4,5-dihydro-3H-1-thia-3,5,6,8-tetraaza-acenaphthylene-2-carboxylic acid (3-ethoxy-4-morpholin-4-ylmethyl-phenyl)-amide]: the IC50 was determined as 16 nM against EGFR and 15 nM at HER-2.
As for `COc1cc(N2C(=O)Nc3c(C(=O)Nc4ccc(CN5CCOCC5)cc4)sc4ncnc2c34)ccc1Br` [Cpd 84, 5-(4-bromo-3-methoxy-phenyl)-4-oxo-4,5-dihydro-3H-1-thia-3,5,6,8-tetraaza-acenaphthylene-2-carboxylic acid (4-morpholin-4-ylmethyl-phenyl)-amide], the values for the IC50 on EGFR and at HER-2 were 776 nM and 518 nM, respectively.
On to `CCOC(=O)c1sc2ncnc3c2c1NC(=O)N3C(C)c1ccc(Br)cc1` (centres unmarked) [Cpd 179, 5-[1-(4-bromo-phenyl)-ethyl]-4-oxo-4,5-dihydro-3H-1-thia-3,5,6,8-tetraaza-acenaphthylene-2-carboxylic acid ethyl ester], for which the inhibition at 2 µM on EGFR was found to be 0.7%. Further, the concentration for half-maximal inhibition (IC50) on HER-2 is > 100000 nM.
For `COc1cc(NC(=O)c2sc3ncnc4c3c2NC(=O)N4c2ccc(Oc3cccnc3)cc2)ccc1CN1CCOCC1` [Cpd 236, 4-oxo-5-[4-(pyridin-3-yloxy)-phenyl]-4,5-dihydro-3H-1-thia-3,5,6,8-tetraaza-acenaphthylene-2-carboxylic acid (3-methoxy-4-morpholin-4-ylmethyl-phenyl)-amide], the values for the IC50 at EGFR and at HER-2 were 108 nM and 454 nM, respectively.
